Assay results from PubChem BioAssay (NCI).
Values joined by “and” are separate entries in the source; they are usually repeats but may differ in a detail not shown here. Equal values may be shown once.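 Following 48 hours of exposure in 96-well plates, responses at five concentrations were used to interpolate endpoints linearly. GI50 = concentration required for 50% inhibition of growth. Definition used: TGI = concentration required for complete inhibition of growth.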

What was measured:
Test in all cases: growth of human tumour cells (NCI), 48 h
[1] = system: SNB-75 CNS
[2] = system: RXF 393 renal
[3] = system: BT-549 breast
[4] = system: UACC-257 melanoma
[5] = system: MDA-MB-435
[6] = system: SK-MEL-2 melanoma
[7] = system: HCT-15 colon
[8] = system: NCI-H23 lung
[9] = system: RPMI-8226 leukemia
[10] = system: OVCAR-4 ovarian

## CCCCOC(=O)c1ccc(NC(=O)CCl)cc1
[1]
  GI50: 1.86 µM
  TGI: 5.96 µM
[2]
  GI50: 1.55 µM
  TGI: 3.19 µM
[3]
  GI50: 2.2 µM
  TGI: 7.7 µM
[4]
  GI50: 3.05 µM
  TGI: 8.66 µM
[5]
  GI50: 3.5 µM
  TGI: 14.3 µM
[6]
  GI50: 4.89 µM
  TGI: 15.9 µM
[7]
  GI50: 1.43 µM
  TGI: 3.19 µM
[8]
  GI50: 2.4 µM
  TGI: 7.47 µM

## CCOc1ccc2nc(-c3cccc(OCC(=O)NC(C)C)c3)nc(Nc3ccc(-c4cn[nH]c4)cc3)c2c1
[1]
  GI50: 1.16 µM
  TGI: 2.48 µM
[9]
  GI50: 0.232 µM
  TGI: 4.9 µM
[2]
  GI50: 0.401 µM
  TGI: 2.16 µM
[4]
  GI50: 1.79 µM
  TGI: 4.12 µM
[5]
  GI50: 0.485 µM
  TGI: 3.81 µM
[10]
  GI50: 1.53 µM
  TGI: 3.52 µM
[6]
  GI50: 1.56 µM
  TGI: 5.31 µM
[7]
  GI50: 0.834 µM
  TGI: 3.69 µM
[8]
  GI50: 1.29 µM
  TGI: 10.2 µM

## O=CC(Br)C(Br)c1ccccc1 (stereo not given)
[1]
  GI50: 7.69 µM
  TGI: 20.9 µM
[9]
  GI50: 2.14 µM
  TGI: 5.39 µM
[2]
  GI50: 1.82 µM
  TGI: 3.78 µM
[3]
  GI50: 2.77 µM
  TGI: 8.47 µM
[4]
  GI50: 1.9 µM
  TGI: 4.56 µM
[5]
  GI50: 1.74 µM
  TGI: 3.63 µM
[10]
  GI50: 1.69 µM
  TGI: 3.14 µM
[6]
  GI50: 2.85 µM
  TGI: 9.11 µM
[7]
  GI50: 0.913 µM
  TGI: 2.93 µM
[8]
  GI50: 3.85 µM
  TGI: 24.8 µM

## CSc1n(Cc2ccc3ccccc3c2)c(C)c[n+]1Cc1ccc2ccccc2c1
[1]
  GI50: 0.342 µM
  TGI: 1.49 µM
[9]
  GI50: 0.287 µM
  TGI: 1.36 µM
[2]
  GI50: 0.938 µM
  TGI: 2.47 µM
[3]
  GI50: 0.569 µM
  TGI: 1.81 µM
[4]
  GI50: 0.325 µM
  TGI: 1.12 µM
[5]
  GI50: 0.436 µM
  TGI: 1.57 µM
[10]
  GI50: 0.289 µM
  TGI: 1.04 µM
[6]
  GI50: 0.486 µM
  TGI: 1.73 µM
[7]
  GI50: 2.12 µM
  TGI: 4.75 µM
[8]
  GI50: 0.385 µM
  TGI: 1.64 µM

## COc1ccc2c3c(c4ccccc4cc13)C(=O)N(CCN(C)CCN)C2=O
[1]
  GI50: 0.166 µM
  TGI: 1.37 µM
[9]
  GI50: 0.166 µM
  TGI: 0.75 µM
[2]
  GI50: 0.259 µM
  TGI: 1.29 µM
[3]
  GI50: 0.329 µM
  TGI: 1.84 µM
[4]
  GI50: 0.483 µM
  TGI: 17.4 µM
[5]
  GI50: 0.343 µM
  TGI: 1.71 µM
[10]
  GI50: 0.299 µM
  TGI: 1.7 µM
[6]
  GI50: 0.887 µM
  TGI: 18.5 µM
[7]
  GI50: 0.0453 µM
  TGI: 1.01 µM
[8]
  GI50: 0.0902 µM
  TGI: 1.28 µM

## O=C(O)C1C(=O)Oc2c(cccc2[N+](=O)[O-])C1O (stereo not given)
[1]
  TGI: > 100 µM
[9]
  TGI: > 100 µM
[2]
  TGI: > 100 µM
[3]
  TGI: > 100 µM
[4]
  TGI: > 100 µM
[5]
  TGI: > 100 µM
[10]
  TGI: > 100 µM
[6]
  TGI: > 100 µM
[7]
  TGI: > 100 µM
[8]
  TGI: > 100 µM

## CCOC(=O)NC1=C(N2CC2)C(=O)C(NC(=O)OCC)=C(N2CC2)C1=O
[1]
  GI50: 9.24 µM
  TGI: 23.2 µM and 29.9 µM and 52 µM
[9]
  GI50: 9.3 µM
  TGI: 19 µM and 20.2 µM and 10.6 µM
[2]
  GI50: 13 µM and 5.74 µM
  TGI: 25 µM and 14.4 µM and 12.9 µM
[3]
  TGI: 25 µM
[4]
  GI50: 6.96 µM
  TGI: 25 µM and 19.9 µM
[5]
  TGI: 7.28 µM
[10]
  GI50: 12.8 µM and 7 µM
  TGI: 24 µM and 11.8 µM and 17.7 µM
[6]
  GI50: 5.09 µM and 7.71 µM
  TGI: 15.2 µM and 14.4 µM and 16.1 µM
[7]
  GI50: 11.4 µM and 10.2 µM
  TGI: 25 µM and 42.9 µM and 44.2 µM
[8]
  GI50: 2.87 µM and 1.61 µM
  TGI: 15.6 µM and 14.1 µM and 7.55 µM

## Nc1nc2ccc3[nH]ncc3c2c2c1CCCC2
[1]
  GI50: 1.36 µM
  TGI: 2.71 µM
[2]
  GI50: 0.399 µM
  TGI: 1.77 µM
[3]
  GI50: 1.38 µM
  TGI: 3.34 µM
[4]
  GI50: 3.28 µM
  TGI: 11.6 µM
[5]
  GI50: 1.52 µM
  TGI: 3.36 µM
[10]
  GI50: 3.6 µM
  TGI: 7.92 µM
[6]
  GI50: 2.12 µM
  TGI: 5.35 µM
[7]
  GI50: 1.88 µM
  TGI: 7.22 µM
[8]
  GI50: 1.41 µM
  TGI: 3.12 µM

## O=C(NCCCCCCNC(=O)n1cc(F)c(=O)[nH]c1=O)NCCCOCCOCCOCCOCCOCCOCCOCCOCCOCCOCCOCCOCCOCCOCCOCCOCCOCCOCCOCCOCCOCCCNC(=O)C(O)C(O)C(OC1OC(CO)C(O)C(O)C1O)C(O)CO (stereo not given)
[1]
  TGI: > 43.7 µM
[9]
  TGI: > 100 µM
[2]
  TGI: > 100 µM
[3]
  TGI: > 100 µM
[4]
  TGI: > 100 µM
[5]
  TGI: > 100 µM
[10]
  TGI: > 100 µM
[6]
  TGI: > 100 µM
[7]
  TGI: > 100 µM
[8]
  TGI: > 100 µM

## COc1ccc2nc3cc([N+](=O)[O-])ccc3c(NCCCN(CCO)CCO)c2c1
[1]
  GI50: 10.9 µM
  TGI: 22.9 µM
[9]
  GI50: 2.28 µM
  TGI: 8.9 µM
[2]
  GI50: 2.93 µM
  TGI: 11.5 µM
[3]
  GI50: 5.58 µM
  TGI: 12.8 µM
[4]
  GI50: 2.82 µM
  TGI: 7.55 µM
[5]
  GI50: 2.27 µM
  TGI: 5.67 µM
[10]
  GI50: 3.81 µM
  TGI: 11.4 µM
[6]
  GI50: 1.49 µM
  TGI: 3.2 µM
[7]
  GI50: 12.8 µM
  TGI: 25.4 µM
[8]
  GI50: 6.43 µM
  TGI: 14.2 µM

## Cc1cc([N+](=O)[O-])ccc1NS(=O)(=O)c1cc(Cl)ccc1Cl
[1]
  GI50: 2.98 µM
  TGI: 38.3 µM
[9]
  GI50: 1.9 µM
  TGI: 6.88 µM
[2]
  GI50: 2.98 µM
  TGI: 18.5 µM
[3]
  GI50: 2.48 µM
  TGI: 14 µM
[4]
  GI50: 2.02 µM
  TGI: 7.55 µM
[5]
  GI50: 2.77 µM
  TGI: 36.6 µM
[10]
  GI50: 2.42 µM
  TGI: > 30.8 µM
[6]
  GI50: 2.67 µM
  TGI: 8.56 µM
[7]
  GI50: 2.92 µM
  TGI: 13.1 µM
[8]
  GI50: 3 µM
  TGI: 9.99 µM

## CC(C)[NH-].CC(C)[NH-].O.O.[Cl][Pt+2][Cl]
[1]
  GI50: 94.4 µM
  TGI: 308 µM
[9]
  GI50: 38.1 µM
  TGI: 281 µM
[2]
  GI50: 26.6 µM
  TGI: 137 µM
[3]
  GI50: 56 µM
  TGI: 266 µM
[4]
  GI50: 87.4 µM
  TGI: 279 µM
[5]
  GI50: 26 µM
  TGI: 76.2 µM
[10]
  GI50: 28.7 µM
  TGI: 106 µM
[6]
  GI50: 19 µM
  TGI: 91.6 µM
[7]
  GI50: 35.7 µM
  TGI: 208 µM
[8]
  GI50: 30.8 µM
  TGI: 183 µM

## Fc1cccc(CSc2ncnc3c2ncn3C2CCCS2)c1 (stereo not given)
[1]
  TGI: 65.6 µM
[9]
  TGI: 52.1 µM
[2]
  TGI: 92.2 µM
[3]
  TGI: 79.5 µM
[4]
  TGI: 29.6 µM
[5]
  TGI: 38.4 µM
[10]
  TGI: 83.1 µM
[6]
  TGI: 40.3 µM
[7]
  TGI: > 100 µM
[8]
  TGI: 62.1 µM
